Results on 1 molecule are retold here after PubChem BioAssay AID1224901.

The EC50 is the concentration needed to bring the measured effect to its halfway point.

This assay concerns MCF7 viability, PrestoBlue fluorescence. Kind of assay: growth inhibition of MCF7 cells, dose response, mTOR inhibitor project (AID 1224901).

On to `CCOC(Cn1nc(-c2ccc3oc(N)nc3c2)c2c(N)ncnc21)OCC`, for which the EC50 was 8 nM.
